Laboratory results reported in US20200297760A1, “COMPOSITIONS AND METHODS FOR REDUCING IMMUNE RESPONSES AGAINST CHIMERIC ANTIGEN RECEPTORS” (Juno Therapeutics, Inc., priority 2015, published 2020).
No end group written: not given here.

Experiments:
[1] = system: PBMCs of subjects treated with CD19-specific CAR T cells; experiment: ELISpot assay for specific immune response to individual CAR peptides; type: cell-based, human; conditions: PBMCs of patients with detected CAR-specific immune response after CD19 CAR T cell infusion
Method: Individual ELISpot assays were performed using an anti-cytokine capture antibody to assess the presence or absence of a specific immune response for each of these individual hits (see Berger et al. (2006); Berger et al. (2001); Riddell et al. (1996); and Berger et al. (2005), supra). Specific immune responses against peptides with sequences within the VH portion of the scFv of the CAR were detected in both patients assessed (including regions within the FR1, CDR1, and FR2 regions for one patient and within the FR3 for the other). […] These two overlapping 15-mer peptides had the amino acid sequences […] (SEQ ID NO: 8) and […] (SEQ ID NO: 9, also set forth in SEQ ID NO:165), respectively. In another study following administration with a different CAR having a murine scFv, CD28 transmembrane and costimulatory domains and a CD3 zeta domain, using similar methods, an immune response also was detected for one subject against a pool containing VH portions of an anti-CD19 scFv and for another subject in a pool containing junction portions.

[2] = target: HLA-A*02:01 (Homo sapiens, UniProt P04439, D140Y/D185E/D98H/E176V/E277Q/G131W/G231S/I119V/I121R/I166T/I218V/L300P/L318F/N151K/N90K/P208A/P217A/Q86G/Q94H/R138H/R169H/T345S); experiment: REVEAL Epitope Discovery System in vitro MHC-peptide binding assay; conditions: binding normalized to positive control peptide set at 100%, greater than 50 considered good or high affinity binding
Method: (§1) Actual binding affinities for certain HLA class I alleles (A*02:01, A*03:01, A*11:01, and B*08:01) were assessed in vitro for exemplary overlapping 9 amino acid peptide sequences within a portion of the 26 amino acid junction region spanning the CD28 and 4-1BB junction. Specifically, assessment was of a series of overlapping 9-mer peptides derived from the sequence […] (set forth in SEQ ID NO: 7), which contains a portion of the CD28 transmembrane domain and 4-1BB costimulatory domain spanning the junction between the domains (bond joining the two amino acids noted in underline). In addition, a series of overlapping 9-mer peptides of each of a number of different variants of this portion also were assessed, each variant containing a mutation or mutations in this region as described in Example 2.
(§2) The various 9-mer overlapping peptides were synthesized and their purity tested by MALDI-TOF Mass Spectrometry. The synthetic peptides were then incubated with recombinant MHC molecules to assess binding properties using the REVEAL Epitope Discovery System, which is a high-throughput binding assay that measures the degree to which each peptide is able to stabilize a ternary MHC-peptide complex (Prolmmune, Oxford, United Kingdom). Each peptide was separately tested for this ability with respect to each of the HLA class I alleles, normalized to the degree observed for a positive control (known T cell epitope for the relevant allele). The results are reported as a score, in which the binding was normalized to the positive control peptide set at 100%. In this analysis, a score of greater than 50 generally was considered to represent good or high affinity binding.

[3] = target: HLA-A*03:01 (Homo sapiens, UniProt P04439); experiment: as above; conditions: REVEAL score, binding normalized to positive control peptide set at 100%; greater than 50 considered good or high affinity binding
Method: as §1, §2

[4] = target: HLA-A*11:01 (Homo sapiens, UniProt P04439, A114D/D185E/E176A/F33Y/L180Q/S129P/T187R); experiment: as above; conditions: binding normalized to positive control peptide set at 100%, >50 considered good or high affinity binding
Method: as §1, §2

[5] = target: HLA-B*08:01 (Homo sapiens, UniProt P01889, A93T/A95T/D138N/E176V/E187T/K202T/Q94N/R180D/S35A/V36M/Y33D/Y91F); experiment: as above; conditions: binding normalized to positive control peptide set at 100%, >50 considered good or high affinity binding
Method: as §1, §2

Molecule | specific immune response against peptide (ELISpot) [1] | A*02:01 In Vitro Score [2] | A*03:01 In Vitro [3] | A*11:01 In Vitro Score [4] | B*08:01 In Vitro Score [5]
FWVKRGRKKLLYIFK | specific immune responses also were detected | – | – | – | –
AFIIFWVKRGRKKLL | specific immune responses also were detected | – | – | – | –
CC[C@H](C)[C@H](N)C(=O)N[C@H](C(=O)N[C@@H](Cc1ccccc1)C(=O)N[C@@H](Cc1c[nH]c2ccccc12)C(=O)N[C@H](C(=O)N[C@@H](C)C(=O)N[C@@H](CCCNC(=N)N)C(=O)NCC(=O)N[C@@H](CCCNC(=N)N)C(=O)O)C(C)C)[C@@H](C)CC | – | 9.60 | 18.60 | 70.60 | 0.30
IIFWVQRGR | – | 5.80 | 18.00 | 72.80 | 0.10
WVKRGRKKA | – | 4.50 | 0.90 | 3.10 | 3.10
VAFIIFWVQ | – | 5.30 | 0.20 | 3.90 | 0.20
FWVLRGRKK | – | 3.30 | 0.40 | 5.00 | 0.00
VAFIIFWVS | – | 70.60 | 0.70 | 25.10 | 0.10
VAFIIFWVK | – | 0.70 | 1.50 | 109.20 | 0.30
WVLRGRKKL | – | 2.40 | 0.70 | 3.20 | 4.00
IIFWVQRGA | – | 95.30 | 2.70 | 56.50 | 0.20
AFIIFWVSR | – | 4.50 | 0.30 | 54.00 | 0.30
CC(C)[C@H](NC(=O)[C@H](Cc1c[nH]c2ccccc12)NC(=O)[C@@H](N)Cc1ccccc1)C(=O)N[C@@H](C)C(=O)N[C@@H](CCCNC(=N)N)C(=O)NCC(=O)N[C@@H](CCCNC(=N)N)C(=O)N[C@@H](CCCCN)C(=O)N[C@@H](CCCCN)C(=O)O | – | 13.50 | 5.00 | 8.90 | 0.00
FWVSRGRKK | – | 1.50 | 2.90 | 6.30 | 0.00
WVQRGAKKL | – | 3.00 | 2.00 | 3.80 | 11.40
CC(C)[C@H](NC(=O)[C@@H](N)Cc1c[nH]c2ccccc12)C(=O)N[C@@H](CCC(N)=O)C(=O)N[C@@H](CCCNC(=N)N)C(=O)NCC(=O)N[C@@H](CC(N)=O)C(=O)N[C@@H](CCCCN)C(=O)N[C@@H](CCCCN)C(=O)N[C@@H](CO)C(=O)O | – | 1.20 | 0.70 | 5.00 | 0.00
WVKRGRKKL | – | 1.40 | 13.10 | 4.80 | 28.50
WVKRGRKKS | – | 3.90 | 0.90 | 6.70 | 4.30
IIFWVQRGS | – | 22.40 | 4.50 | 16.90 | 0.10
